IC50 data for 2 compounds are collected here from patent US4895842A, “Phenylalanine derivative and proteinase inhibitor” (Shosuke Okamoto, priority 1985, dated 1990).

Experiment [1] deals with T1, bovine thrombin (Bos taurus, UniProt P00735). Put plainly: Antithrombin activity: inhibition of fibrin formation from fibrinogen. In kind it is biochemical. The procedure, abridged:
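Inhibitor in 0.18M borate-saline buffer pH 7.4 mixed with 0.2% bovine fibrinogen and 4 unit/ml bovine thrombin (stock levels) at 37° C; clotting time measured. I50 is the inhibitor concentration doubling coagulation time versus uninhibited control.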

The target of experiment [2] is human urokinase (Homo sapiens, UniProt P00749). Kind of experiment: biochemical. The conditions noted are these: Table 2; S-2444 substrate, pH 8.8, 37° C.; read-out: Urokinase S-2444 (I50). The procedure, abridged:
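Inhibitor in 0.05M Tris-HCl pH 8.8 preincubated 5 min at 37° C with S-2444 (1 mM solution added), then human urokinase (500 unit/ml solution) added for 5 min at 37° C; stopped with 50% acetic acid. p-Nitroaniline read at 405 nm; I50 is concentration halving absorbance versus no inhibitor.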

For experiment [3], the target named is T2, human plasmin (Homo sapiens, UniProt P00747). Kind of experiment: Antiplasmin activity: inhibition of fibrin decomposition. Format: biochemical. The conditions noted are these: Table 2; concentration at which fibrin dissolution time is extended twice, pH 7.4, 37° C.; read-out: Plasmin Fibrin (I50). In a few lines: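 Inhibitor in 0.18 M borate–physiological saline buffer, pH 7.4, received bovine fibrinogen (0.2% solution), human plasmin (0.3 casein unit/ml solution) and bovine thrombin (50 unit/ml solution) at 37 °C. Time for the resulting fibrin clot to dissolve was recorded.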

In experiment [4] the target is T3, bovine trypsin (Bos taurus, UniProt P00760).
T3 sequence (P00760 24-246): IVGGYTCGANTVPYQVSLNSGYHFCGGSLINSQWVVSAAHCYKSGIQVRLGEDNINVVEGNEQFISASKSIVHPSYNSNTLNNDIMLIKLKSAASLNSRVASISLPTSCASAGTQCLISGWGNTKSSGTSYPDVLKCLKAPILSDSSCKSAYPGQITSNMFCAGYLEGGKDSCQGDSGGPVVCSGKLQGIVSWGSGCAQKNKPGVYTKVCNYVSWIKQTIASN
Put plainly: Antitrypsin activity: inhibition of S-2238 decomposition. Format: biochemical. The conditions noted are these: Table 2; S-2238 substrate, pH 8.1, 37° C.; read-out: Trypsin S-2238 (I50).

Experiment [5] addresses T2, human plasmin. Kind of experiment: biochemical. As to conditions: read-out: Plasmin S-2251 (I50). The procedure, abridged: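 Inhibitor in 0.05M Tris-HCl buffer, pH 7.4, was incubated with human plasmin added at 0.2 casein unit/ml (stock) at 37° C for 4 minutes, then stopped with 50% acetic acid. I50 (μmol) is the inhibitor concentration giving half the absorbance obtained without inhibitor.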

In experiment [6] the target is human plasma kallikrein (Homo sapiens, UniProt P03952). Kind of experiment: Anti-plasma kallikrein activity: inhibition of S-2302 decomposition. Format: biochemical. As to conditions: Table 2; S-2302 substrate, pH 7.8, 37° C.; read-out: Plasma Kallikrein S-2302 (I50).
Protocol: Determination of inhibition activity for S-2302 decomposition
An inhibitor sample is dissolved in a 0.05M Tris-hydrochloric acid buffer solution (pH=7.8) to make the total volume to 400 μl. To this solution, 50 μl of a 2 mM S-2302 solution is added and the mixture is incubated at a temperature of 37° C. for 5 minutes in a constant temperature bath. Then, 50 μl of a 0.12 unit/ml human plasma kallikrein is added and the mixture is incubated at a temperature of 37° C. for 5 minutes. Thereafter, 50 μl of 50% acetic acid is added to terminate the reaction. The absorbance of the p-nitroaniline formed in the reaction mixture is measured at 405 nm. Thus, the concentration I50 (μmol) of the inhibitor sample, at which the absorbance is one half (i.e., 1/2) of that obtained in the absence of the inhibitor sample, is determined.
In experiment [7] the target is T1, bovine thrombin. Kind of experiment: Antithrombin activity: inhibition of S-2238 decomposition. In kind it is biochemical. As to conditions: Table 2; S-2238 substrate, pH 8.3, 37° C.; read-out: Thrombin S-2238 (I50). The procedure, abridged:
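Inhibitor in 0.05 M Tris-HCl, pH 8.3, preincubated with S-2238 (0.2 mM stock) for 5 min at 37 °C. Bovine thrombin (0.2 unit/ml stock) then added, and p-nitroaniline release followed at 405 nm by initial velocity at 37 °C. I50 is the concentration halving the rate.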

Counter-ions that a name gives are not always drawn.

T2 sequence (P00747 581-810 limits assumed): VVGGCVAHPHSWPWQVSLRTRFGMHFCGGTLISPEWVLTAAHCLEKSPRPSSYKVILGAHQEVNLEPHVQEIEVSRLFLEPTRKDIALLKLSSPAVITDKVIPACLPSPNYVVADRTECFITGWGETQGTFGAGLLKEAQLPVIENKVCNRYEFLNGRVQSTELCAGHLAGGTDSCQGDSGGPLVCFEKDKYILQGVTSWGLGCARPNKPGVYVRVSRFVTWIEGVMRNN
T2 sequence (P00747 97-580 partner limits assumed): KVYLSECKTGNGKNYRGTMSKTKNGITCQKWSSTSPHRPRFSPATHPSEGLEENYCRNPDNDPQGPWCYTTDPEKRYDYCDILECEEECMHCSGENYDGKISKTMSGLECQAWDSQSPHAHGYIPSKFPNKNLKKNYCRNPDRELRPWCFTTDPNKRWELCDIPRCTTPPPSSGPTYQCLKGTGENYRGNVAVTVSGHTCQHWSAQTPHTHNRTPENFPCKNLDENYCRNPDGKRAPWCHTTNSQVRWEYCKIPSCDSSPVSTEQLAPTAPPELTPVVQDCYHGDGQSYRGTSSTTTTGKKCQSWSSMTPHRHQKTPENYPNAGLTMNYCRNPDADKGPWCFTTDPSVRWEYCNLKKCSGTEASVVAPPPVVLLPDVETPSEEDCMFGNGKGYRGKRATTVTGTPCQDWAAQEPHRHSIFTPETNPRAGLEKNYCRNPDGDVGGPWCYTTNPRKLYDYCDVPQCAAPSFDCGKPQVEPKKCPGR
Chain of human plasma kallikrein (P03952 391-638 limits assumed): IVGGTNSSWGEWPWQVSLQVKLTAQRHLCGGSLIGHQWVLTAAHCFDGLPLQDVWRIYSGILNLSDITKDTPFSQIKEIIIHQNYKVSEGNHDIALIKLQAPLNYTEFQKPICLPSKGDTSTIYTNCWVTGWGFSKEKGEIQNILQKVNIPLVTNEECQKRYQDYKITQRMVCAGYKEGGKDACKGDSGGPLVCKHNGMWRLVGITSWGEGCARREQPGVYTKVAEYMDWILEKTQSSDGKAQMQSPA
Chain of human plasma kallikrein (P03952 20-390 partner limits assumed): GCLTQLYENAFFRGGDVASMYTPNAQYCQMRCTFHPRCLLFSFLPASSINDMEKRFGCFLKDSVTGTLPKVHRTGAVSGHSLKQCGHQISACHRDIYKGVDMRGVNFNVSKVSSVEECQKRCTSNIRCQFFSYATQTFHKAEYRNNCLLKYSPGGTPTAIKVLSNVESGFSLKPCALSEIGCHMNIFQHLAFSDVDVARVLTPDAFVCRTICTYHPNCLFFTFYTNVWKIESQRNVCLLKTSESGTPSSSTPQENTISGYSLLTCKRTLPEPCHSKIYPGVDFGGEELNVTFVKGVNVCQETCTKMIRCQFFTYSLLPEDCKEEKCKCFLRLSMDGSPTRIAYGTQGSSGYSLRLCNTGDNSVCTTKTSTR

As for `CC(=O)c1ccc(NC(=O)[C@H](Cc2ccc([N+](=O)[O-])cc2)NC(=O)[C@H]2CC[C@H](CN)CC2)cc1` [compound 130, N-(trans-4-aminomethylcyclohexylcarbonyl)-4-nitro-L-phenylalanine 4-acetylanilide hydrochloride], the IC50 is more than 400 µM in experiment [1]; 34 µM in experiment [2]; 7.1 µM in experiment [3]; 0.5 µM in experiment [4]; 15 µM in experiment [5]; 8.3 µM in experiment [6]. Also, the IC50 in experiment [7] is more than 400 µM.

Regarding `NCc1ccc(C(=O)N[C@@H](Cc2ccccc2)C(=O)Nc2cccc(C(F)(F)F)c2)cc1` [compound 131], the IC50 was more than 500 µM in experiment [1]; more than 250 µM in experiment [2]; 56 µM in experiment [3]; 4.4 µM in experiment [4]; 170 µM in experiment [5]; 17 µM in experiment [6]. In addition, in experiment [7], the IC50 is more than 200 µM.
